Read-outs that look alike come from different tables or passages of the source.
Experiments:
in vitro [1] = details: African green monkey
Nipah virus [2] = experiment: microbe, parasite or virus in culture; assay type: cell-based; details: read-out: NiV IC50
Hendra virus = experiment: microbe, parasite or virus in culture; assay type: cell-based; details: read-out: HeV IC50
[3] = test system: pseudotyped Hendra (pHeV); experiment: microbe, parasite or virus in culture; assay type: cell-based, Hendra virus; details: read-out: pHeV IC50
[4] = test system: human parainfluenza virus type 3 (HPIV3); experiment: microbe, parasite or virus in culture; assay type: cell-based; details: read-out: HPIV3 IC50
[5] = test system: Influenza A/swine/Rachaburi/2000 (H1N1); experiment: microbe, parasite or virus in culture; assay type: cell-based, Influenza A virus
pseudotyped Nipah (pNiV) = experiment: microbe, parasite or virus in culture; assay type: cell-based, Nipah virus; details: read-out: pNiV IC50
in vitro [6] = details: human
Nipah virus [7] = experiment: microbe, parasite or virus in culture; assay type: cell-based; details: Henipavirus nipahense
influenza A (H1N1) virus = details: cited from earlier work
IL-8 = assay type: cell-based, African Green Monkey
VSV (pVSV) = experiment: microbe, parasite or virus in culture; assay type: cell-based, vesicular stomatitis virus; details: read-out: pVSV IC50
Nipah virus [8] = details: hamster, in vivo; cited from earlier work
TNF-α = assay type: cell-based, African Green Monkey
Henipavirus = details: cited from earlier work
[9] = Human respirovirus 3, HEK-293T, 24 h
[10] = Henipavirus nipahense, HEK-293T, 48 h
[11] = 1 h, read-out: NiV IC50, co-infection (Co)
[12] = 1 h, read-out: NiV IC50, post-infection (Post)
[13] = 1 h, read-out: NiV IC50, pre-infection (Pre)
[14] = read-out: NiV IC50, cell pre-incubation (Cells)
[15] = Vesicular stomatitis virus, HEK-293T, 48 h

Molecule | CC50 (in vitro [1]) [nM] | IC50 (Nipah virus [2]; Henipavirus nipahense, Vero) [nM] | IC50 (Hendra virus; Henipavirus hendraense, Vero) [nM] | IC50 ([3]; Hendra virus, HEK-293T, 48 h) [nM] | IC50 [4, 9] [nM] | Influenza IC50 [5] | inhibition of influenza (H1N1) virus, in words [5] | IC50 (pseudotyped Nipah (pNiV); [10]) [nM] | CC50 (in vitro [6]) [nM] | IC50 (Nipah virus [7]; [11]) [nM] | IC50 (Nipah virus [7]; [12]) [nM] | IC50 (Nipah virus [7]; [13]) [nM] | IC50 (Nipah virus [7]; [14]) [nM] | IL-8 expression, fold change (IL-8) | IC50 (VSV (pVSV); [15]) [nM] | TNF-α expression, fold change (TNF-α) | other results
NC(=O)c1ncn([C@@H]2O[C@H](CO)[C@@H](O)[C@H]2O)n1 [Ribavirin, ribavirin] | 150000 | 3900 | 2240 | – | – | – | – | – | – | – | – | – | – | – | – | – | –
CN(C)c1ccc(C(=C2C=CC(=[N+](C)C)C=C2)c2ccc(N(C)C)cc2)cc1 [Gentian Violet, gentian violet] | 5860 | 525 | 2680 | 0.3 | 860 | DNC^a | did not observe clear inhibition | 61 | 2830 | 4980 | 3950 | 7380 | 587 | two fold | 268 | – | residual viable count of influenza virus, 30 min (influenza A (H1N1) virus): below three logs; residual viable count of influenza virus, 60 min (influenza A (H1N1) virus): below five logs
poly(I)-poly(C12U) | – | – | – | – | – | – | – | – | – | – | – | – | – | – | – | – | prevention of mortality (Nipah virus [8]): five of six animals
brilliant green | – | – | – | – | – | DNC^a | did not observe antiviral efficacy | – | – | – | – | – | – | 20 fold | – | 15 fold | IC50 [3]: 34 nM; IC50 [4]: 248 nM; IC50 (pseudotyped Nipah (pNiV)): 42 nM; IC50 (Nipah virus [2]): 218 nM; IC50 (VSV (pVSV)): 15 nM; CC50 (293T cells): 861 nM; IC50 (Hendra virus): 778 nM; CC50 (Vero cells): 4670 nM
CN1C(=O)[C@]23CC4=CC=C[C@H](O)[C@H]4N2C(=O)[C@@]1(CO)SS3 [Gliotoxin, gliotoxin] | 4900 | 149 | 579 | 366 | 527 | – | dose-dependant inhibition | 100 | 1610 | 468 | 610 | 1170 | 487 | two fold | 232 | suppressed | IC50 ([5]; Influenza A virus, H1N1, Vero, in Sus scrofa, 24 h, read-out: Influenza IC50): 13800 nM
CCN(CC)CCCC(C)Nc1ccnc2cc(Cl)ccc12 (centres unmarked) [chloroquine] | – | – | – | – | – | – | – | – | – | – | – | – | – | – | – | – | anti Henipavirus effects in vivo (Henipavirus): no anti Henipavirus effects
